Assays:
Assay in all cases: radiometric filter-binding kinase assay, Kinase HotSpot
Conditions in all cases: compound 0.5 µM; ATP 10 µM
[1] = biological target: LCK (human) (UniProt P06239)
[2] = biological target: FER (human) (UniProt P16591)
[3] = biological target: TYRO3 (human) (UniProt Q06418)
[4] = biological target: CDK6 CCND1 (human) (UniProt Q00534+P24385)
[5] = biological target: EPHA4 (human) (UniProt P54764)
[6] = biological target: CDK7 CCNH MNAT1 (human) (UniProt P50613+P51948+P51946)
[7] = biological target: TYK2 JH1 catalytic (human) (UniProt P29597)
[8] = biological target: CLK1 (human) (UniProt P49759)
[9] = biological target: CDK2 CCNA2 (human) (UniProt P24941+P20248)
[10] = biological target: TEC (human) (UniProt P42680)
[11] = biological target: FLT1 (human) (UniProt P17948)
[12] = biological target: TNK2 (human) (UniProt Q07912)
[13] = biological target: PAK6 (human) (UniProt Q9NQU5)
[14] = biological target: NEK3 (human) (UniProt P51956)
[15] = biological target: AKT2 (human) (UniProt P31751)
[16] = biological target: GRK5 (human) (UniProt P34947)
[17] = biological target: DAPK3 (human) (UniProt O43293)
[18] = biological target: MAP3K3 (human) (UniProt Q99759)
Sequence of MAP3K3 (human) (Q99759 whole entry, looked up): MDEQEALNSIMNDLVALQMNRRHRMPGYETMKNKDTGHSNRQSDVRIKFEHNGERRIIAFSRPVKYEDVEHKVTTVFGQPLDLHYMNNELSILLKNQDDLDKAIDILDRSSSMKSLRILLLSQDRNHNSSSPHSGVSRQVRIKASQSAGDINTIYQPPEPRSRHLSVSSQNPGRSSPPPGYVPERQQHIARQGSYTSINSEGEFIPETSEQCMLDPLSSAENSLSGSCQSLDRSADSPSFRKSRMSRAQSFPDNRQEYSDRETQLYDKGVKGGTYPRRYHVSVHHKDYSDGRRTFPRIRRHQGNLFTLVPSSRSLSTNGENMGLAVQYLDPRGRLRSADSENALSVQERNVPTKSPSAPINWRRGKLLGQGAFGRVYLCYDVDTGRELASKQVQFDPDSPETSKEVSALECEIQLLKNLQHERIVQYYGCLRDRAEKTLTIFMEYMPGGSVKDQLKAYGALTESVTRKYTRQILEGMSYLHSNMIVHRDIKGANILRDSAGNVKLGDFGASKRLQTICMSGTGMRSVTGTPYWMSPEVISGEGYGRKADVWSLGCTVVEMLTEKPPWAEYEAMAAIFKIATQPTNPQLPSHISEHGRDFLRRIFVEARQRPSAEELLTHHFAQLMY

[19] = biological target: PLK2 (human) (UniProt Q9NYY3)
[20] = biological target: PRKCD (human) (UniProt Q05655)
[21] = biological target: MAPK13 (human) (UniProt O15264)
[22] = biological target: FGFR1 (human) (UniProt P11362)
Sequence of FGFR1 (human) (P11362 whole entry, looked up): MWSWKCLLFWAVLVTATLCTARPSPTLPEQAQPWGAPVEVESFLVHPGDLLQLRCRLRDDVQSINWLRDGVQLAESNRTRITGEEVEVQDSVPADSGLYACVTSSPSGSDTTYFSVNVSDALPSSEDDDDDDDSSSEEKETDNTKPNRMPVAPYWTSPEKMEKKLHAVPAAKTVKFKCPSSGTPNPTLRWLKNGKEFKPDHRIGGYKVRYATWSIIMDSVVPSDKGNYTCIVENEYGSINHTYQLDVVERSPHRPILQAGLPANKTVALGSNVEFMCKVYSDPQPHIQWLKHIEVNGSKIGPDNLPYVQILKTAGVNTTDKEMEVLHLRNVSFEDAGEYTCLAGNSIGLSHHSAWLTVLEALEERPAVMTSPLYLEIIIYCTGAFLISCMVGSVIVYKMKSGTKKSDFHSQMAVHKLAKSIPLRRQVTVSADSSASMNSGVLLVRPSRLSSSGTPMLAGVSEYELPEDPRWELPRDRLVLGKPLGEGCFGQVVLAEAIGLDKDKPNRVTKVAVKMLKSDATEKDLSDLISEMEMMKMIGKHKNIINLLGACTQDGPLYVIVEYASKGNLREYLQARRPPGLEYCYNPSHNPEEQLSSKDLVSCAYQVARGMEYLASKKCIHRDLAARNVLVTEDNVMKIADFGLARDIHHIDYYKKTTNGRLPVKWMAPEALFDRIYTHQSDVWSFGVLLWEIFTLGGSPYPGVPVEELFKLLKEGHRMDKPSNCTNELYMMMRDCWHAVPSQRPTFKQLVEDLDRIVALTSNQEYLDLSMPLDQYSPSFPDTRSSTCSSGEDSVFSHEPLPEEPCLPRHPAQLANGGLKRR

[23] = biological target: MAPK3 (human) (UniProt P27361)
Sequence of MAPK3 (human) (P27361 whole entry, looked up): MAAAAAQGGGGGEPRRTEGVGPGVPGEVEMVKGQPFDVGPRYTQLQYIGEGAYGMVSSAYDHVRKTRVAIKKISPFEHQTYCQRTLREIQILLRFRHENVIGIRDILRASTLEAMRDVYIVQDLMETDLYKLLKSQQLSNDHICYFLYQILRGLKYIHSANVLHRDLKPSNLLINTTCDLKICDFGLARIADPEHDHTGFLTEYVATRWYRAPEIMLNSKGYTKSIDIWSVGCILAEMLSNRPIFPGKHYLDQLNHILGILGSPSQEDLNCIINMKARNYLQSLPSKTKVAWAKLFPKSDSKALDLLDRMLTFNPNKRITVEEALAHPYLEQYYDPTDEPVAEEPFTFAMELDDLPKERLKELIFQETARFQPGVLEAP

[24] = biological target: ROS1 (human) (UniProt P08922)
[25] = biological target: MUSK (human) (UniProt O15146)
Sequence of MUSK (human) (O15146 whole entry, looked up): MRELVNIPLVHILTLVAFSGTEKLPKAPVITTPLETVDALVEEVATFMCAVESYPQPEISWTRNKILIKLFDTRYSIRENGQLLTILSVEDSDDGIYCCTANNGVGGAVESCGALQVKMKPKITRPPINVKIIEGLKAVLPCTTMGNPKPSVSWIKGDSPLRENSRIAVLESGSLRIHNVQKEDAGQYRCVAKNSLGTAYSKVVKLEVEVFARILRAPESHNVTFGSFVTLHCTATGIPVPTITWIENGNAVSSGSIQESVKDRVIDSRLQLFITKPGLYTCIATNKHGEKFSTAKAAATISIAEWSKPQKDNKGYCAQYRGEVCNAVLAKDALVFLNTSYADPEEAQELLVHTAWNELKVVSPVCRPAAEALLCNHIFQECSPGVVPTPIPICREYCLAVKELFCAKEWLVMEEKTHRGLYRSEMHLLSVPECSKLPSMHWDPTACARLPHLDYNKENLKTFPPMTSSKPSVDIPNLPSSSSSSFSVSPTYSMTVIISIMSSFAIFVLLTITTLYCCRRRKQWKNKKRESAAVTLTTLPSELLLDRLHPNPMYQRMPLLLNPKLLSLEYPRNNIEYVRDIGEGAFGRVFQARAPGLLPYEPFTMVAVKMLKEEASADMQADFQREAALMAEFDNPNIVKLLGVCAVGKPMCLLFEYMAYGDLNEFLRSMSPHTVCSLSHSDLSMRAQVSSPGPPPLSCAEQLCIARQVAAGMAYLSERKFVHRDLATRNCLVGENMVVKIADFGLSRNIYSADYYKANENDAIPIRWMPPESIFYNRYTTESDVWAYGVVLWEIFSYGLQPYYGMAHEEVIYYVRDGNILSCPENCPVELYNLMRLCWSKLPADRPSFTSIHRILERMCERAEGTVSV

[26] = biological target: STK25 (human) (UniProt O00506)
Sequence of STK25 (human) (O00506 whole entry, looked up): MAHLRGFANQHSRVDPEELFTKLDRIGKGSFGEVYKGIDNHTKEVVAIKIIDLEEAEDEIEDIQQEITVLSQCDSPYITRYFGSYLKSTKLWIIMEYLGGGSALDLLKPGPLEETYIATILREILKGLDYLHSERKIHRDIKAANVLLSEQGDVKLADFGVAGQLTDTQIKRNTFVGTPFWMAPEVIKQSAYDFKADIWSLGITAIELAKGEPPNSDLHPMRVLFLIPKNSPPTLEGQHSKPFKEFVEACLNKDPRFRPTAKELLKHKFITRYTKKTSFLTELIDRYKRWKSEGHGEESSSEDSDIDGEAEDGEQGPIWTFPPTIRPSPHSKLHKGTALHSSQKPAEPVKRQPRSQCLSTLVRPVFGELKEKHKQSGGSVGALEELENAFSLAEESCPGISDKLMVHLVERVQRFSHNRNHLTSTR

[27] = biological target: AURKC (human) (UniProt Q9UQB9)
[28] = biological target: TEK (human) (UniProt Q02763)
[29] = biological target: ERBB4 (human) (UniProt Q15303)
[30] = biological target: MAP3K8 (human) (UniProt P41279)
[31] = biological target: DMPK (human) (UniProt Q09013)
[32] = biological target: PIM2 (human) (UniProt Q9P1W9)
Sequence of PIM2 (human) (Q9P1W9 whole entry, looked up): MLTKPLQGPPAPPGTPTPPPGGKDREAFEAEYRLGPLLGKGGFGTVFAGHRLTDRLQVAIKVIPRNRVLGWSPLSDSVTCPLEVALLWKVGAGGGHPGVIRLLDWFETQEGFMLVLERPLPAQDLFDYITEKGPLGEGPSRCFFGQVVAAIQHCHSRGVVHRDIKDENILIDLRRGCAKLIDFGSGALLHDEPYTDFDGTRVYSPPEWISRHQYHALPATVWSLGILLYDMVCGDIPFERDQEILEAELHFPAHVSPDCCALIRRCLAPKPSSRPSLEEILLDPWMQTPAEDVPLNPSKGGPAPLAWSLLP

[33] = biological target: CDK5 CDK5R1 p35 (human) (UniProt Q00535+Q15078)
[34] = biological target: ROCK2 (human) (UniProt O75116)
[35] = biological target: PHKG2 (human) (UniProt P15735)
Sequence of PHKG2 (human) (P15735 whole entry, looked up): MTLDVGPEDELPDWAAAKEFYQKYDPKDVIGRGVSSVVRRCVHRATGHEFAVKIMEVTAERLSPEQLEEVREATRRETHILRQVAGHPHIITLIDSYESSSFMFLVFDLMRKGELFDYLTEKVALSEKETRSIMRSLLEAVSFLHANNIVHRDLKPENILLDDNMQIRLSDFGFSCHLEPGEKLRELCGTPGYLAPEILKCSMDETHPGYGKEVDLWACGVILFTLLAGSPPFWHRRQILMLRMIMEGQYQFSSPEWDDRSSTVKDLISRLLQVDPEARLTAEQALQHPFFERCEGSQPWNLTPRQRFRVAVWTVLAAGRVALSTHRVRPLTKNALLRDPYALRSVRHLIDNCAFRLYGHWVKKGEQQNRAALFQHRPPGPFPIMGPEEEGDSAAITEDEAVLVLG

[36] = biological target: CSF1R (human) (UniProt P07333)
[37] = biological target: ACVR1B (human) (UniProt P36896)
[38] = biological target: PDGFRB (human) (UniProt P09619)
[39] = biological target: MINK1 (human) (UniProt Q8N4C8)
[40] = biological target: KIT (human) (UniProt P10721)
[41] = biological target: ZAP70 (human) (UniProt P43403)
[42] = biological target: CSNK1G1 (human) (UniProt Q9HCP0)

Sequence of EPHA4 (human) (P54764 whole entry, looked up): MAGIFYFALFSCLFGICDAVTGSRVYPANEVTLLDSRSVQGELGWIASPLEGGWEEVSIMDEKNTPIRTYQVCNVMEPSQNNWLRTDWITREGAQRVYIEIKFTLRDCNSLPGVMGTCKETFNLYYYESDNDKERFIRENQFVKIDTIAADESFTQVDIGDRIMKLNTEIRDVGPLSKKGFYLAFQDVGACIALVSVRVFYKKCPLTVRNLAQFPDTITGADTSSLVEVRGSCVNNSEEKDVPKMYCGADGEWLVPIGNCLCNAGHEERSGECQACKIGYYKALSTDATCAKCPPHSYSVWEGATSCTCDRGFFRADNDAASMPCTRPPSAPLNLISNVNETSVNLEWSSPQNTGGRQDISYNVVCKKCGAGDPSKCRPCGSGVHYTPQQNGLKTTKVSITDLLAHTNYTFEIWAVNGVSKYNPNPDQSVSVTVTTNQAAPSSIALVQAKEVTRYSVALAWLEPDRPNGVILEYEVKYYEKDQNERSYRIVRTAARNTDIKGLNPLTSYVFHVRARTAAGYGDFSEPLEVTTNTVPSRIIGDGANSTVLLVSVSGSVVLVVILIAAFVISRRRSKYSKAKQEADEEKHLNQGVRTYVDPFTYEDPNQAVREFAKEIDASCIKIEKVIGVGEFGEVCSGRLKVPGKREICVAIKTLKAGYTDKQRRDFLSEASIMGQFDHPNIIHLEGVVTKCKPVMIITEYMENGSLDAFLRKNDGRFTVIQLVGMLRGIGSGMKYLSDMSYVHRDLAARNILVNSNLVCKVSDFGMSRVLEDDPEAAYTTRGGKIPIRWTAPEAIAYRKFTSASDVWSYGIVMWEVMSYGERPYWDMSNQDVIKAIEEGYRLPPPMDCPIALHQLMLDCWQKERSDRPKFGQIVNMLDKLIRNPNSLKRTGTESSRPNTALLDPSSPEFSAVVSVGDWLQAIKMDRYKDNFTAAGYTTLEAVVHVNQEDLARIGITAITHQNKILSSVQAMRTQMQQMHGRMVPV

SMILES: O=C1NC(=O)C(c2c[nH]c3ccccc23)=C1c1c[nH]c2ccccc12
- residual activity [1]: 85.1%
- residual activity [2]: 83.5%
- residual activity [3]: 101%
- residual activity [4]: 88.7%
- residual activity [5]: 87.6%
- residual activity [6]: 94.4%
- residual activity [7]: 109%
- residual activity [8]: 111%
- residual activity [9]: 81.9%
- residual activity [10]: 145%
- residual activity [11]: 53.9%
- residual activity [12]: 94.9%
- residual activity [13]: 92.4%
- residual activity [14]: 88.2%
- residual activity [15]: 102%
- residual activity [16]: 98.1%
- residual activity [17]: 104%
- residual activity [18]: 127%
- residual activity [19]: 97.7%
- residual activity [20]: 55.5%
- residual activity [21]: 104%
- residual activity [22]: 41.4%
- residual activity [23]: 105%
- residual activity [24]: 87%
- residual activity [25]: 76.4%
- residual activity [26]: 78.3%
- residual activity [27]: 101%
- residual activity [28]: 101%
- residual activity [29]: 110%
- residual activity [30]: 90.8%
- residual activity [31]: 97.3%
- residual activity [32]: 105%
- residual activity [33]: 79.5%
- residual activity [34]: 89.2%
- residual activity [35]: 107%
- residual activity [36]: 93.7%
- residual activity [37]: 112%
- residual activity [38]: 95.6%
- residual activity [39]: 83.4%
- residual activity [40]: 68.5%

SMILES: COc1cc2ncnc(N3CCN(C(=O)Nc4ccc(Oc5ccccc5)cc4)CC3)c2cc1OC
- residual activity [1]: 92.3%
- residual activity [2]: 99.8%
- residual activity [3]: 99.6%
- residual activity [4]: 95.1%
- residual activity [5]: 93.2%
- residual activity [6]: 103%
- residual activity [41]: 100%
- residual activity [7]: 83.1%
- residual activity [8]: 89.4%
- residual activity [9]: 93.1%
- residual activity [42]: 81.6%
- residual activity [10]: 101%
- residual activity [11]: 79%
- residual activity [12]: 77.1%
- residual activity [13]: 95.2%
- residual activity [14]: 100%
- residual activity [15]: 87.6%
- residual activity [16]: 82.2%
- residual activity [17]: 101%
- residual activity [18]: 83.7%
- residual activity [19]: 105%
- residual activity [20]: 84.3%
- residual activity [21]: 104%
- residual activity [22]: 89.6%
- residual activity [23]: 102%
- residual activity [24]: 89.7%
- residual activity [25]: 87.4%
- residual activity [26]: 100%
- residual activity [27]: 90.3%
- residual activity [28]: 92.6%
- residual activity [29]: 101%
- residual activity [30]: 95.1%
- residual activity [31]: 95.6%
- residual activity [32]: 101%
- residual activity [33]: 99.8%
- residual activity [34]: 125%
- residual activity [35]: 128%
- residual activity [36]: 67.2%
- residual activity [37]: 94.7%
- residual activity [39]: 99.6%
- residual activity [40]: 48.2%

SMILES: COc1cc2ncc(-c3ccccc3)nc2cc1OC
- residual activity [1]: 93.5%
- residual activity [2]: 80%
- residual activity [3]: 100%
- residual activity [4]: 94.1%
- residual activity [5]: 99.3%
- residual activity [6]: 109%
- residual activity [41]: 98.6%
- residual activity [7]: 93.9%
- residual activity [8]: 102%
- residual activity [9]: 92.9%
- residual activity [42]: 90.1%
- residual activity [10]: 164%
- residual activity [11]: 85%
- residual activity [12]: 93.2%
- residual activity [13]: 82.8%
- residual activity [14]: 90.5%
- residual activity [15]: 86.7%
- residual activity [16]: 106%
- residual activity [17]: 84.7%
- residual activity [18]: 90.3%
- residual activity [20]: 82.2%
- residual activity [21]: 89.6%
- residual activity [22]: 92.9%
- residual activity [23]: 97.6%
- residual activity [24]: 100%
- residual activity [25]: 95.9%
- residual activity [26]: 90.7%
- residual activity [27]: 90.1%
- residual activity [28]: 85.7%
- residual activity [29]: 65.9%
- residual activity [30]: 108%
- residual activity [31]: 103%
- residual activity [32]: 101%
- residual activity [33]: 95.8%
- residual activity [34]: 96.1%
- residual activity [35]: 97.1%
- residual activity [36]: 88.2%
- residual activity [37]: 95.2%
- residual activity [38]: 87.5%
- residual activity [39]: 93.5%
- residual activity [40]: 67.3%

— the kinase profiling compilation of Christmann-Franck et al. (2016)
